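GI50: concentration for 50% inhibition of growth. TGI: concentration producing complete growth inhibition.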
What was measured:
Experiment in all cases: NCI anticancer screen, dose series, 384-well format
786-0 renal = system: 786-0 renal
A498 renal = system: A498 renal
A549 NSCLC = system: A549 NSCLC
ACHN renal = system: ACHN renal
BT-549 breast = system: BT-549 breast
CAKI-1 renal = system: CAKI-1 renal
CCRF-CEM leukemia = system: CCRF-CEM leukemia
COLO 205 colon = system: COLO 205 colon
DU-145 prostate = system: DU-145 prostate
EKVX NSCLC = system: EKVX NSCLC
HCC-2998 colon = system: HCC-2998 colon
HCT-116 colon = system: HCT-116 colon
HCT-15 colon = system: HCT-15 colon
HL-60(TB) leukemia = system: HL-60(TB) leukemia
HOP-62 NSCLC = system: HOP-62 NSCLC
HOP-92 NSCLC = system: HOP-92 NSCLC
HS 578T breast = system: HS 578T breast
HT29 colon = system: HT29 colon
IGROV1 ovarian = system: IGROV1 ovarian
K-562 leukemia = system: K-562 leukemia
KM12 colon = system: KM12 colon
LOX IMVI melanoma = system: LOX IMVI melanoma
M14 melanoma = system: M14 melanoma
MALME-3M melanoma = system: MALME-3M melanoma
MCF7 breast = system: MCF7 breast
MDA-MB-435 melanoma = system: MDA-MB-435 melanoma
MDA-MB-468 breast = system: MDA-MB-468 breast
MOLT-4 leukemia = system: MOLT-4 leukemia

CC1=CC(=O)C=CC1=Nc1ccc(N(C)C)cc1
GI50 ([…]-0 renal): 13 µM | TGI (786-0 renal): 25.7 µM | GI50 (A498 renal): 11.4 µM | TGI (A498 renal): 23.6 µM | GI50 (A549 NSCLC): 15.3 µM | TGI (A549 NSCLC): 28.8 µM | GI50 (ACHN renal): 5.29 µM | TGI (ACHN renal): 18.7 µM | GI50 (BT-549 breast): 6.14 µM | TGI (BT-549 breast): 18.6 µM | GI50 (CAKI-1 renal): 8.66 µM | TGI (CAKI-1 renal): 20.8 µM | GI50 (CCRF-CEM leukemia): 1.43 µM | TGI (CCRF-CEM leukemia): 2.77 µM | GI50 (COLO 205 colon): 2.92 µM | TGI (COLO 205 colon): 7.43 µM | GI50 (DU-145 prostate): 14 µM | TGI (DU-145 prostate): 27 µM | GI50 (EKVX NSCLC): 11.3 µM | TGI (EKVX NSCLC): 23.5 µM | GI50 (HCC-2998 colon): 5.21 µM | TGI (HCC-2998 colon): 20.1 µM | GI50 (HCT-116 colon): 2.67 µM | TGI (HCT-116 colon): 8.2 µM | GI50 (HCT-15 colon): 11.4 µM | TGI (HCT-15 colon): 23.6 µM | GI50 (HL-60(TB) leukemia): 1.33 µM | TGI (HL-60(TB) leukemia): 2.62 µM | GI50 (HOP-62 NSCLC): 3.92 µM | TGI (HOP-62 NSCLC): 9.14 µM | GI50 (HOP-92 NSCLC): 2.65 µM | TGI (HOP-92 NSCLC): 6.19 µM | GI50 (HS 578T breast): 12.3 µM | TGI (HS 578T breast): 24.8 µM | GI50 (HT29 colon): 14.4 µM | TGI (HT29 colon): 27.7 µM | GI50 (IGROV1 ovarian): 12.1 µM | TGI (IGROV1 ovarian): 24.5 µM | GI50 (K-562 leukemia): 12.1 µM | TGI (K-562 leukemia): 24.5 µM | GI50 (KM12 colon): 12.6 µM | TGI (KM12 colon): 25.3 µM | GI50 (LOX IMVI melanoma): 11.6 µM | TGI (LOX IMVI melanoma): 23.9 µM | GI50 (M14 melanoma): 12.5 µM | TGI (M14 melanoma): 25 µM | GI50 (MALME-3M melanoma): 15.3 µM | TGI (MALME-3M melanoma): 28.6 µM | GI50 (MCF7 breast): 3.46 µM | TGI (MCF7 breast): 13.3 µM | GI50 (MDA-MB-435 melanoma): 2.52 µM | TGI (MDA-MB-435 melanoma): 6.2 µM | GI50 (MDA-MB-468 breast): 0.361 µM | TGI (MDA-MB-468 breast): 1.34 µM | GI50 (MOLT-4 leukemia): 1.38 µM
